Experimental data taken from paper PMC11285368, “Chasing Red Herrings: Palladium Metal Salt Impurities Feigning KRAS Activity in Biochemical Assays” (Journal of Medicinal Chemistry, 2024).
Where two headings read alike, the source gives them in different places.

Experiments:
Type in all cases: biochemical
KRAS^G12D(GTP)::CRAF [1] = target: T1, KRAS^G12D(GTP)::CRAF (Homo sapiens, UniProt P01116, G12D); experiment: KRAS^G12D(GTP)::CRAF TR-FRET; details: Fluorescence; GST-CRAF^(51–131) and KRAS^G12D(1–169)-biotin
T1 construct: KRAS^G12D 1–169, N-terminal 6His-tag, C-terminal avi-tag (Xtal BioStructures, Inc.); 6His (N); purchased Xtal BioStructures, Inc. (KRAS); Viva Biotech Ltd. (CRAF)
Procedure: Plates were kept at room temperature in a darkened incubator.
(§1) IC50 values were calculated and analyzed with Boehringer Ingelheim’s MEGALAB IC50 application using a 4 parametric logistic model.

KRAS^G12D(GTP)::CRAF [2] = target: T1, KRAS^G12D(GTP)::CRAF; experiment: KRAS^G12D(GTP)::CRAF AlphaScreen
Procedure: The proteins have been used at these given final assay concentrations:
Test compounds dissolved in DMSO were dispensed onto assay plates (Proxiplate 384 PLUS, white, PerkinElmer; 6008289) using an Access Labcyte Workstation with the Labcyte Echo 555. For the chosen highest assay concentration of 100 μM, 150 nl of compound solution were transferred from a 10 mM DMSO compound stock solution. A series of 11 5-fold dilutions per compound was transferred to the assay plate, and compound dilutions were tested in duplicates. DMSO was added as backfill to a total volume of 150 nl. The assay was run on a fully automated robotic system in a darkened room below 100 Lux. […] After 60 min incubation time 5 μL of AlphaScreen bead mix in assay buffer were added into columns 1–23. Bead mix consisted of AlphaLISA Glutathione Acceptor Beads (PerkinElmer, cat. no. AL109) and Alpha-Screen Streptavidin Donor Beads (perkinElmer cat. no. 6760002) in assay buffer at a final assay concentration of 10 μg/mL each. Plates were kept at room temperature in a darkened incubator. After an additional 60 min incubation time the signal was measured on a PerkinElmer Envision HTS Multilabel Reader using the AlphaScreen specs from PerkinElmer.
as §1

biotinylated GST = biotinylated GST (Schistosoma japonicum, UniProt P08515); experiment: Control assay (AlphaScreen Shortcut)
Procedure: This assay was developed to identify compounds that interfere with the assay format using AlphaLISA Glutathione Acceptor and AlphaScreen Streptavidin Donor beads. The assay was performed as described above using biotinylated GST as bridging reagent instead of KRAS^G12D and CRAF mix.

T1 sequence (P01116 1-169 isoform P01116-2 G12D): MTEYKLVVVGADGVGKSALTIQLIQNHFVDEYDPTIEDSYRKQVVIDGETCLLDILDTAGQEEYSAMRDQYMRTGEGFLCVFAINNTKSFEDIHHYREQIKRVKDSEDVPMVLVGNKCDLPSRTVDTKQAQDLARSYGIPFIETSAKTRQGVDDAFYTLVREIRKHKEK
biotinylated GST, sequence (P08515 whole entry): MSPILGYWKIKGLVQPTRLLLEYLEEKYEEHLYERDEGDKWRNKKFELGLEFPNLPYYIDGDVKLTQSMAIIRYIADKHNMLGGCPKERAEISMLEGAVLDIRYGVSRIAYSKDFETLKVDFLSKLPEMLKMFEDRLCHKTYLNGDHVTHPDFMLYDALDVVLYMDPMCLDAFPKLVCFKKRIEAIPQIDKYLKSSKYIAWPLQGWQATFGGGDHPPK

**Q.** Which IC50 (KRAS^G12D(GTP)::CRAF [1]) does the source give for [Cl][Pd][Cl] [PdCl2, Palladium(II) chloride] here?
**A.** The IC50 was 40.5 ± 19.2 µM.

**Q.** What about the IC50 (KRAS^G12D(GTP)::CRAF [2]; Batch 1, read-out: KRAS^G12D(GTP)::CRAF AlphaScreen IC50) of the same compound?
**A.** Its IC50 is 0.7 ± 0.2 µM.

**Q.** And the IC50 (KRAS^G12D(GTP)::CRAF [2]; Luminescence, GST-CRAF^(1–303) and KRAS^G12D(1–169)-biotin, read-out: IC50, KRAS^G12D(GTP)::CRAF AlphaScreen)?
**A.** The IC50 was 0.7 ± 0.2 µM.

**Q.** And the IC50 (biotinylated GST; Batch 1, read-out: Control assay IC50)?
**A.** The IC50 was 5.8 ± 0.7 µM.

**Q.** And the IC50 (biotinylated GST; Luminescence, biotinylated GST, read-out: IC50, Control assay)?
**A.** The IC50 was 5.8 ± 0.7 µM.
